Measurements taken from US8252832B2, “Kinesin inhibitors as cancer therapeutics” (Novartis AG, priority 2007, dated 2012).
Read-outs that look alike come from different tables or passages of the source.

How the values were obtained:
[1] = system: primary blast cells from AML patients; assay: Colony formation assay in methylcellulose containing medium, AML blasts; assay type: cell-based, human
Experimental: (§1) Primary blast cells from AML patients were tested for sensitivity to compound IIa as shown below. Frozen AML blasts from peripheral blood were obtained from AllCell LLC. (Emeryville, Calif.). Three frozen vials containing ˜1×10^7 PBMCs were purchased. Peripheral blood mononuclear cells (PBMCs) from three newly diagnosed AML patients with a high percentage of blasts (#06-188, 80%; #06-366, 88%; #06-503, 73%) were cultured for several weeks and treated with the KSP inhibitors. The vials were rapidly thawed and the cells were cultured in Iscove's DMEM supplemented with 10% FBS and the following cytokines all at 10 ng/ml: GM-CSF, G-CSF, SCF, IL-3, and IL-6 (all from R&D Systems). Three assays were performed on the cells as follows: • CellTiter-Glo® assay on AML blasts. PBMCs containing AML blasts were seeded in 96-well plates (5000/well) and treated with various concentrations of the compound IIa (10 pM to 10 nM) for 48 hours before cells survival was measured as described above. GI50 values (nM) were calculated as for cell lines. • Cell cycle analysis using propidium iodide staining. […] The DNA content of the fixed and stained cells was analyzed by the BD FACSCalibur flow cytometer using the CellQuest software. • Colony formation assay in methylcellulose containing medium. […] Colonies were counted under a microscope after 2 weeks. […]

RPMI-8226 = assay: CellTiter-Glo, hematologic malignancy panel; assay type: cell-based; conditions: MM; for GI50: Homo sapiens
Description: (§2) Identification of tumor types that are the most sensitive to the KSP inhibitors of the present invention can be accomplished using an unbiased approach that uses several cell-based assays. The assays chosen were as follows: • CellTiter-Glo®. This is an assay designed to measure ATP concentration in a cell culture, and can be correlated to cell number. Briefly CellTiter-Glo® (Promega Corporation) is a homogeneous method using the single CellTiter-Glo® reagent to detect ATP wherein ATP in the assay drives the activity of a thermostable luciferase to create a luminescent signal which can then be measured and correlated with the number of viable cells. Briefly, for adherent cells, 1,000 to 5,000 cells/well were plated in 96-well plates (100 μl/well) and let to adhere for 24 hours before being treated with drug. For non-adherent cells, 1,000 to 10,000 cells/well were plated in 96-well plates (100 μl/well) and immediately treated with drug. Drug dilutions were prepared in DMSO at 1000 times the final concentration. These dilutions were then diluted 1/100 in growth media before being added to the cells (11 μl/well) to achieve the desired final concentration. After 48 h in a 37° C. tissue culture incubator, the plates were processed for the CellTiter-Glo®assay according to the manufacturer's instructions. Protocol for a 72 hour cell proliferation assay: The 72 hour assay was performed the same way as the 48 hour assay except for the following modifications: For adherent cells, 500 to 5,000 cells/well were plated in 96-well plates (90 μl/well cell growth media) and left to adhere for 24 hours before being treated with drug. For non-adherent cells, 1,000 to 10,000 cells/well were plated in 96-well plates (90 μl/well cell growth media) and immediately treated with drug. Data values presented represent the concentration of test compound required for a 50% reduction in growth. • LDH release. The Cytotoxicity Detection KitPLUS (LDH) assay (Roche Diagnostics, Manheim, Germany) measures the amount of LDH released in the media by dying cells; LDH catalyzes the conversion of lactate into pyruvate. The enzymatic reaction is coupled to a chemical reaction that uses a tetrazolium salt to form a formazan that is red and can be detected by its absorbance at 490 nm. This assay measures the amount of cell death after drug treatment. Cells were plated at 10,000 cells/well in 96-well plates (100 μl/well). Adherent cells were let to adhere for 24 hours before being treated with drug, whereas non-adherent cells were immediately treated with drug. Drug dilutions were prepared in DMSO at 1000 times the final concentration. These dilutions were then diluted 1/100 in growth media before being added to the cells (11 μl/well) to achieve the desired final concentration. After 48 h in a 37° C. tissue culture incubator, the plates were processed for the Cytotoxicity Detection KitPLUS (LDH) assay according to the manufacturer's instructions. The media only values were subtracted from all the data points before analysis. Data values presented correspond to the compound concentration wherein LDH output is at half maximal level. • Caspase-Glo® 3/7. The Caspase-Glo® 3/7 Assay (Promega Corporation) is a homogeneous luminescent assay that measures caspase-3/7 activities. The assay provides a proluminescent caspase-3/7 DEVD-aminoluciferin substrate and a thermostable luciferase in a reagent optimized for caspase-3/7 activity, luciferase activity and cell lysis. Adding the single Caspase-Glo® 3/7 Reagent results in cell lysis, followed by caspase cleavage of the substrate. This liberates free aminoluciferin, which is consumed by the luciferase, generating a luminescent signal. The signal is proportional to caspase-3/7 activity. Data values presented correspond to the compound concentration wherein caspase 3/7 activity is at half maximal level. […]

SET-2 = assay: CellTiter-Glo, hematologic malignancy panel; assay type: cell-based; conditions: AML; for GI50: Homo sapiens
Description: as §2

[2] = system: primary blast cells from AML patients; assay: Cell cycle analysis using propidium iodide staining, AML blasts; assay type: cell-based, human; conditions: 0.2 and 2 nM
Experimental: as §1

[3] = GI50 in nM, read-out: Log(GI50) (converted)

## CC(C)(C)[C@H](c1nc(-c2cc(F)ccc2F)cn1Cc1ccccc1)N(CC[C@H](N)CF)C(=O)CO [Compound IIa]
[1]; 0.5 nM and above, samples #06-366, #06-188, #06-503, 2 weeks
  colonies: absent
[1]; sample #06-366, 0.2 nM, 2 weeks
  number of colonies: markedly reduced
RPMI-8226; [3]
  GI50: 0.262 nM
RPMI-8226; read-out: GI50
  GI50: 0.26 nM
RPMI-8226
  Differential vs mean Log(GI50): 0.112
SET-2
  Differential vs mean Log(GI50): −0.001
SET-2; [3]
  GI50: 0.34 nM
SET-2; read-out: GI50
  GI50: 0.34 nM
[2]; sample #06-366, 24 hours
  cell cycle profile, 4N population: increase in the number of cells arrested in mitosis
[2]; sample #06-366, 48 hours
  cell cycle profile, <2N population: increase in the number of dying cells
